According to patent publication US20250281479A1, “TREATMENT OF CAVERNOUS ANGIOMAS WITH A 4-SUBSTITUTED PIPERIDINE DERIVATIVE” (Neurelis, Inc., priority 2024, published 2025):

Experiments:
plasma protein binding = type: in vitro ADME, mouse; conditions: range over mouse, rat, dog, monkey, minipig and human plasma; read-out: % free drug
Description: (§1) Exposure to NRL-2017 was similar or greater (up to 5-fold) than that to NRL-1049 in rats when dosed once a day (QD). In monkeys, exposure to NRL-2017 was also greater (up to 33-fold) than that to NRL-1049. When rats were dosed twice a day (BID) for 14 days, there was a decrease in formation of NRL-2017 with exposure to NRL-2017 lower than that of NRL-1049 (ratio as low as 0.06). […] NRL-1049 bound to human serum albumin and human alpha1-acid glycoprotein. […] There was also inhibition of P-glycoprotein (P-gp) (only CACO-2 cells), organic anion transporting polypeptides (OATP) OATP1B1, OATP1B3 and OAT3 (IC50, >100 μM), but no effect on P-gp (MDCK2 cells), breast cancer resistance protein (BCRP), bile salt export pump (BSEP), or MATE2-K. NRL-1049 is a substrate for P-gp, not BCRP. […] This conclusion will be revisited when human pharmacokinetic (PK) data becomes available.

plasma protein = plasma protein binding; type: in vitro ADME, mouse; conditions: mouse, rat, dog, monkey, minipig and human plasma
Description: as §1

cytochrome P450 (CYP) = assay: metabolite or time-dependent CYP inhibition; type: in vitro ADME
Description: as §1

[1] = test system: mouse, monkey, and human hepatocytes; assay: incubation with hepatocytes (mouse, monkey, human); type: in vitro ADME
Description: as §1

OATP1B1 = OATP1B1 (Homo sapiens, UniProt Q9Y6L6); assay: transporter inhibition; type: in vitro ADME
Description: as §1

MATE1 = MATE1 (Homo sapiens, UniProt Q96FL8); assay: transporter inhibition; type: in vitro ADME; conditions: one range printed for OAT1, OCT1, OCT2 and MATE1 together
Description: as §1

[2] = target: T1, P-glycoprotein (P-gp) (only CACO-2 cells) (Homo sapiens, UniProt P08183); assay: transporter inhibition; type: in vitro ADME
T1 construct: endogenous in cells; host or cells: CACO-2 cells
Description: as §1

OCT1 = OCT1 (Homo sapiens, UniProt O15245); assay: transporter inhibition; type: in vitro ADME; conditions: one range printed for OAT1, OCT1, OCT2 and MATE1 together
Description: as §1

OATP1B3 = OATP1B3 (Homo sapiens, UniProt Q9NPD5); assay: transporter inhibition; type: in vitro ADME
Description: as §1

CYP2D6 = CYP2D6 (Homo sapiens, UniProt P10635); assay: CYP isozyme mediating metabolism; type: in vitro ADME
Description: as §1

T1 sequence (P08183 whole entry): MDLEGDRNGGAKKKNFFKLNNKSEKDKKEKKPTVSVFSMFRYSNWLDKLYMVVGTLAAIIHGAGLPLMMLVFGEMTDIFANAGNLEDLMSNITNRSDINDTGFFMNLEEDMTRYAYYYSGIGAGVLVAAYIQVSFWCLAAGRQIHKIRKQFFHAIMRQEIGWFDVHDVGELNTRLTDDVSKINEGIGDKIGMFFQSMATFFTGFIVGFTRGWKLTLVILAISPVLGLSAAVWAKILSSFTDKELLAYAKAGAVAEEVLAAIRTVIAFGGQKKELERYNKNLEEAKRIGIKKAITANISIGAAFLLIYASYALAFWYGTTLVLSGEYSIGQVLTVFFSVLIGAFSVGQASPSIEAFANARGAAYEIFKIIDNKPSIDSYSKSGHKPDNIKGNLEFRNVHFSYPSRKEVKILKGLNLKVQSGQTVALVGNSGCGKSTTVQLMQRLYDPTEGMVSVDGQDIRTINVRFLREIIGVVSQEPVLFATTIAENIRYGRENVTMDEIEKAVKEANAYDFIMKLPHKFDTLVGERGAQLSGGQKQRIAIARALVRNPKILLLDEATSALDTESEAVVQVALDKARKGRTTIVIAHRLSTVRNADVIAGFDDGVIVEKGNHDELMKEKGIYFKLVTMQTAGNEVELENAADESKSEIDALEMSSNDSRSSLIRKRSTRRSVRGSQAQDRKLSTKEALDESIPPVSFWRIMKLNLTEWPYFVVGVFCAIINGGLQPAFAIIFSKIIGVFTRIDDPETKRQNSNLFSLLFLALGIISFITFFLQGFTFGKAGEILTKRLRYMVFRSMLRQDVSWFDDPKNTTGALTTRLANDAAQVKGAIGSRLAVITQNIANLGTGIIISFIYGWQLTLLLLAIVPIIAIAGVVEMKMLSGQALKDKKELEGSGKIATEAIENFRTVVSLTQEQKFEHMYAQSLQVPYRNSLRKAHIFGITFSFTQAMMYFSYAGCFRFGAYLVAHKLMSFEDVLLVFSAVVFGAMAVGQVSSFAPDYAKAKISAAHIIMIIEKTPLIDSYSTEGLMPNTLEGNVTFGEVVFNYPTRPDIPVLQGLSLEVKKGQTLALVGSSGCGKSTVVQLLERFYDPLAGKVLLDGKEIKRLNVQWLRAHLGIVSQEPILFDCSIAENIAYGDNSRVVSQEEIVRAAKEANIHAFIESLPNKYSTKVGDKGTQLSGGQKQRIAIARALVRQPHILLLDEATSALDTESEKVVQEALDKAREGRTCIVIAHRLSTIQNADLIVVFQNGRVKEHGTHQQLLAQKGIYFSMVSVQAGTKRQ
OCT1, sequence (O15245 whole entry): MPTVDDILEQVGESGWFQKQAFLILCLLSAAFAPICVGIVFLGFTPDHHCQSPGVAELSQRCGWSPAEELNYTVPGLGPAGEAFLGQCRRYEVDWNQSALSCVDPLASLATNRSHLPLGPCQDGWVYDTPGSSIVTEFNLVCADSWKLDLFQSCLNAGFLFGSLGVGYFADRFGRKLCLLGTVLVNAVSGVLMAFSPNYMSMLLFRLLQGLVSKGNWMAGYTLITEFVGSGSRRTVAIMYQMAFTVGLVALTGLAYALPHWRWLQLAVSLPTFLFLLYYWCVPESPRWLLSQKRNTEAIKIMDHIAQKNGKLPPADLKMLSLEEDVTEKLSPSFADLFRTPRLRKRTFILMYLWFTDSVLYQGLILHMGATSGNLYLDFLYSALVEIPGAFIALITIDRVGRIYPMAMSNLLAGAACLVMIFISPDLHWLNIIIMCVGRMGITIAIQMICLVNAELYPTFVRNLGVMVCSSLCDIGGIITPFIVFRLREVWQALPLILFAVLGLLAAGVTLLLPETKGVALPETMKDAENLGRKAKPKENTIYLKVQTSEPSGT
OATP1B1, sequence (Q9Y6L6 whole entry): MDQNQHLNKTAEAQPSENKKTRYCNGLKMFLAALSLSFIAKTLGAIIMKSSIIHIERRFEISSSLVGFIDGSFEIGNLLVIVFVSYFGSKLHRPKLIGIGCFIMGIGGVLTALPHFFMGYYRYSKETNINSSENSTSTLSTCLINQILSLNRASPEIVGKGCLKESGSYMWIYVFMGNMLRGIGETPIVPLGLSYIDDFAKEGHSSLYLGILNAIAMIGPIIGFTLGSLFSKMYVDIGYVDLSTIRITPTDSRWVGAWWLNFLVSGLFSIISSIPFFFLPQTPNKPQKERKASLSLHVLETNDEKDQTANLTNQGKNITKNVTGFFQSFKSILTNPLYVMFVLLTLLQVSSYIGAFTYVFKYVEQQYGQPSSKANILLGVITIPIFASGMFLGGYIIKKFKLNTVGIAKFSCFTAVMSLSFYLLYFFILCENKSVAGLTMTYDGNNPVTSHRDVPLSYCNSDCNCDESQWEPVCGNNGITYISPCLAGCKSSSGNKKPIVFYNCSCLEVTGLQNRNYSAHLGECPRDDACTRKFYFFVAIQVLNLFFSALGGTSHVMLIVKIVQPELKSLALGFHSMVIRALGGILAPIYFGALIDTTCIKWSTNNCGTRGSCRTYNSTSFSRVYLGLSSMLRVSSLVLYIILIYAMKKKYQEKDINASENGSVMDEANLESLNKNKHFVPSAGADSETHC
MATE1, sequence (Q96FL8 whole entry): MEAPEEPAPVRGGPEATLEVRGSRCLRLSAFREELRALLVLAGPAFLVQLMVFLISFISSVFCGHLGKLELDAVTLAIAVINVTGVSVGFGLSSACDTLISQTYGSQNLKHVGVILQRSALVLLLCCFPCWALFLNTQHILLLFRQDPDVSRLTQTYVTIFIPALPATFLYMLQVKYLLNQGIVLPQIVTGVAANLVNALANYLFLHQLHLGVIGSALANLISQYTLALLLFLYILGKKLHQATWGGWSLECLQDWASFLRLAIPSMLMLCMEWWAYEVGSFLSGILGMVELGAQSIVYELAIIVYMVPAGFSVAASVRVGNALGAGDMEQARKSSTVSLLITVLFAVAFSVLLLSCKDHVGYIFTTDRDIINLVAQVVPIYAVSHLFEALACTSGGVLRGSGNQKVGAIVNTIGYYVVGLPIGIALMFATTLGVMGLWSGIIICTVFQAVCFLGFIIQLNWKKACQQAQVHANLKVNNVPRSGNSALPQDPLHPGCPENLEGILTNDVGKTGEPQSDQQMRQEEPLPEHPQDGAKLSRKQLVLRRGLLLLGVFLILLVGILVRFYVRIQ
CYP2D6, sequence (P10635 whole entry): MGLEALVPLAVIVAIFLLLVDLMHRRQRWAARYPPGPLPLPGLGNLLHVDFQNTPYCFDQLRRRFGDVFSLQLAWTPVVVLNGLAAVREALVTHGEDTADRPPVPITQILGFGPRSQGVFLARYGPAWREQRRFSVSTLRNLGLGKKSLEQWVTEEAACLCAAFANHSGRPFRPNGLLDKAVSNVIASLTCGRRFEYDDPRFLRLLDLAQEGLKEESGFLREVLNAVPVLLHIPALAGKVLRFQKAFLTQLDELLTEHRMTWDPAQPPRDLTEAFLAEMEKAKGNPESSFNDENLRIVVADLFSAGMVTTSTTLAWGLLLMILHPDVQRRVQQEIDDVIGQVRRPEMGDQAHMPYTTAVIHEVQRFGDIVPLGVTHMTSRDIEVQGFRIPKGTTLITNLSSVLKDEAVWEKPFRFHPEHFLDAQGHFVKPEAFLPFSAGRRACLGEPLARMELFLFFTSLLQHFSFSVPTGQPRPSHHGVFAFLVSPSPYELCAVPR
OATP1B3, sequence (Q9NPD5 whole entry): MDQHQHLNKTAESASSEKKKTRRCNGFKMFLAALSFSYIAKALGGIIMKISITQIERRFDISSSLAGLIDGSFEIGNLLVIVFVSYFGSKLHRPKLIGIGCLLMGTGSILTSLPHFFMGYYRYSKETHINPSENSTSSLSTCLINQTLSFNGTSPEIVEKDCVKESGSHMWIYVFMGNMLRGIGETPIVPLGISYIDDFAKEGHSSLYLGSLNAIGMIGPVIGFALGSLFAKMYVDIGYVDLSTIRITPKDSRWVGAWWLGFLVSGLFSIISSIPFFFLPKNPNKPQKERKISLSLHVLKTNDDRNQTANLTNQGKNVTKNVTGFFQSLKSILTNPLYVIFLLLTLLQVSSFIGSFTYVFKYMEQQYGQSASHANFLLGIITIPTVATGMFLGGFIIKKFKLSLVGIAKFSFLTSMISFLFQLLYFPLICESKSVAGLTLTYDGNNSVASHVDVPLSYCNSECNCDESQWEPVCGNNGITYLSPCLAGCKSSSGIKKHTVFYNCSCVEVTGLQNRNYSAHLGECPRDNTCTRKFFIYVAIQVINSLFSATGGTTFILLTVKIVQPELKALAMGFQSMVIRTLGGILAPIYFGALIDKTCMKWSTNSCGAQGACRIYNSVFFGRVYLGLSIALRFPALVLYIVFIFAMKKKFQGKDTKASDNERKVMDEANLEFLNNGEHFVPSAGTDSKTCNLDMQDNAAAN

**Q.** For `C[C@@H](N)C1CCN(S(=O)(=O)c2cccc3cnccc23)CC1` [NRL-1049], which fraction unbound (plasma protein binding) is on record?
**A.** Its fraction unbound is 0.541 to 0.706.

**Q.** What about the plasma protein binding (plasma protein) of the same compound?
**A.** Its plasma protein binding is “low to moderate”.

**Q.** What about the “metabolite or time-dependent inhibition” value (cytochrome P450 (CYP)) of the same compound?
**A.** The value was “no metabolite or time-dependent inhibition”.

**Q.** What about the clearance in hepatocytes [1] of the same compound?
**A.** The clearance in hepatocytes was “moderate to high clearance”.

**Q.** And the IC50 (OATP1B1)?
**A.** The IC50 was over 100 µM.

**Q.** What about the IC50 (MATE1) of the same compound?
**A.** The IC50 was 8.54 to 66.2 µM.

**Q.** And the IC50 [2]?
**A.** The IC50 was over 100 µM.

**Q.** And the IC50 (OCT1)?
**A.** The IC50 was 8.54 to 66.2 µM.

**Q.** And the IC50 (OATP1B3)?
**A.** The IC50 was over 100 µM.

**Q.** What about the “metabolism by CYP2D6” value (CYP2D6) of the same compound?
**A.** The value was “primarily mediated”.
